Values quoted from earlier work as cited in patent US20200093949A1, “COMBINED ODOR ABSORPTION AND INSECT REPELLENT COMPOSITIONS, TREATMENTS, AND METHODS OF USE” (priority 2014, published 2020).

System: yellow fever mosquito
Conditions: compared with DEET

## CCC(C)OC(=O)N1CCCCC1CCO (stereo not shown) [Picaridin, 2-(2-hydroxyethyl)-1-piperidine carboxylic acid 1-methylpropyl ester]
  time of protection of guinea pigs from bites, post application: longer times
